Measured values reported in patent US20260274894A1, “CYCLIC POLYPEPTIDE COMPOUND AND USE THEREOF” (BIVISION PHARMACEUTICALS, INC., priority 2023, published 2026).
Numbered stars: 1 amine (or outer) side, 2 acyl side, 3 side chain; on linkers, the order of the positions; unused ones are H or OH. Bridge positions count the residues as written; N and C are the ends. Square brackets hold non-standard residues; d marks the D form. Side chains are listed from the residue outwards. Peptide text beside a SMILES is read from it. * marks the point of attachment. ξ: configuration not given here. NH(CH2)2O(CH2)2NHDOTA = O=C(O)CN1CCN(CC(=O)O)CCN(CC(=O)NCCOCCN*)CCN(CC(=O)O)CC1; X4 = O=C(O)CN1CCN(CC(=O)O)CCN(CC(=O)N2CCc3cc(C(=O)*)ccc3C2)CCN(CC(=O)O)CC1; NH(CH2)5NHDOTA = O=C(O)CN1CCN(CC(=O)O)CCN(CC(=O)NCCCCCN*)CCN(CC(=O)O)CC1; DOTA = O=C(O)CN1CCN(CC(=O)O)CCN(CC(=O)*)CCN(CC(=O)O)CC1; Azetidine3carboxylic = O=C(C1CN([*:1])C1)[*:2]; Pyridine(3,5-bisCH2) = c1ncc(C[*:2])cc1C[*:1]; mXylylene = c1cc(C[*:1])cc(C[*:2])c1; Ethylenediamine = C(CN[*:2])N[*:1]; d(β3hD) = NC(CC(=O)O)CC(=O)O; CH2CH2 = C(C[*:2])[*:1]; Dap = NC[C@H](N)C(=O)O; Hexanoyl = CCCCCC(=O)*; CO = O=C([*:1])[*:2]; ξP = O=C(O)C1CCCN1; Ava = NCCCCC(=O)O; ξC = NC(CS)C(=O)O; NHBu = CCCCN*

target: T1, FAP protein (Homo sapiens, UniProt Q12884); assay: Biacore test of compound affinity to FAP protein; conditions: Biacore 8K, SA chip, 15° C., 1:1 binding model; read-out: pKD (FAP) (converted)
T1 construct: purchased Sinobiological
T1 sequence (Q12884 1-760): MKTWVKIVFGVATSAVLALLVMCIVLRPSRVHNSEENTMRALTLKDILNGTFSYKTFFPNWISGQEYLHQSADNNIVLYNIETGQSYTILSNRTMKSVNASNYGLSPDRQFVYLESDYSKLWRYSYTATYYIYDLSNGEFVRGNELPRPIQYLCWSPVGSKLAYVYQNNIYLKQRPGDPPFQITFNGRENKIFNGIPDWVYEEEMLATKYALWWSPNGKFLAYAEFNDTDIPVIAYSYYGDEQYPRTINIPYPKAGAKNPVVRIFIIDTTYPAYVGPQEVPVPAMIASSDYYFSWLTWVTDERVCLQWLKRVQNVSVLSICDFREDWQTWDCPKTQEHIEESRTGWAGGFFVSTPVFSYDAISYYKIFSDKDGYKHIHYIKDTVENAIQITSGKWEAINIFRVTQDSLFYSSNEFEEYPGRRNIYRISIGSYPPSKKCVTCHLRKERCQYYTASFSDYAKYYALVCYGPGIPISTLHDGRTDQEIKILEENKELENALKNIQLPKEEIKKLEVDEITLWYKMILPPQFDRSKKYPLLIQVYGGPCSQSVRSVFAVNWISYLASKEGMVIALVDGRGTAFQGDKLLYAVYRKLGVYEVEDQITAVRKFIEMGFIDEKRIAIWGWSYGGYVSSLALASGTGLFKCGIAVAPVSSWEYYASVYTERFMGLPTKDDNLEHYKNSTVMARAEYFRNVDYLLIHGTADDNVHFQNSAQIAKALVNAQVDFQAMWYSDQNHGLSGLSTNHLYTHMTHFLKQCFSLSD
Protocol: The Biacore 8K (Cytiva) instrument was used to detect ligand binding of the FAP protein (Sinobiological). FAP protein was captured on the SA chip. […] The sensor surface was conditioned by injecting 1M NaCl three consecutive times in 50 mM NaOH. After each ligand injection, additional cleaning was performed using isopropanol in 1M NaCl and 50 mM NaOH (flow path 1 and 2, flow rate of 10 μL/min, injection time of 60 s). […] The analyte was run under the following conditions: analysis temperature of 15° C., analysis step=all set to LMW kinetics; cycle type=single cycle (contact time of 90 s, dissociation time of 1800 s, flow rate of 30 μL/min, flow channels 1 and 2); channel detection=2-1. Data was evaluated using the Biacore Insight Evaluation Software, and the data were fitted to a 1:1 binding model. The Biacore results are shown in Table 2 below: pKD=−Log KD, where KD is the binding affinity of the compound to the FAP protein as measured by Biacore.

Kd, 10 to 100 nM:
CCCCNC(=O)N[C@H]1CSCc2cccc(c2)CSCC(C(=O)N[C@@H](CCC(=O)NCCNC(=O)c2ccc3c(c2)CCN(C(=O)CN2CCN(CC(=O)O)CCN(CC(=O)O)CCN(CC(=O)O)CC2)C3)C(=O)O)NC(=O)[C@H](Cc2ccccc2)NC(=O)[C@H](CCC(N)=O)NC(=O)[C@H]([C@@H](C)O)NC(=O)C2CCCN2C(=O)C2CN(C2)C1=O (stereo partly drawn) [JHDC26, nBu-urea-[Cys(3MeBn)-hhy39-Pro-Thr-Gln-Phe-Cys]-Glu-(EDA-hhy02-DOTA)-OH] ({NHBu-CO}-C[Azetidine3carboxylic][ξP]TQF[ξC]E([Ethylenediamine-X4])-OH; linker 1-7 via mXylylene)
CCCCCC(=O)N[C@H]1CSCCSCC(C(=O)N[C@@H](CCC(=O)NCCOCCNC(=O)CN2CCN(CC(=O)O)CCN(CC(=O)O)CCN(CC(=O)O)CC2)C(=O)O)NC(=O)[C@H](Cc2ccccc2)NC(=O)[C@H](CCC(N)=O)NC(=O)[C@H]([C@@H](C)O)NC(=O)C2CCCN2C(=O)C2CN(C2)C1=O (stereo partly drawn) [JHDC27, Hex[Cys(ethylene)-hhy39-Pro-Thr-Gln-Phe-Cys]-Glu-(DAPEG2-DOTA)-OH] (Hexanoyl-C[Azetidine3carboxylic][ξP]TQF[ξC]E(NH(CH2)2O(CH2)2NHDOTA)-OH; linker 1-7 via CH2CH2)
CCCCNC(=O)N[C@H]1CSCc2cccc(c2)CSCC(C(=O)N[C@@H](CCC(=O)NCCCCCNC(=O)CN2CCN(CC(=O)O)CCN(CC(=O)O)CCN(CC(=O)O)CC2)C(=O)O)NC(=O)[C@H](Cc2ccccc2)NC(=O)[C@H](CCC(N)=O)NC(=O)[C@H]([C@@H](C)O)NC(=O)C2CCCN2C(=O)C2CN(C2)C1=O (stereo partly drawn) [JHDC28, nBu-urea-[Cys(3MeBn)-hhy39-Pro-Thr-Gln-Phe-Cys]-Glu-(PDA-DOTA)-OH] ({NHBu-CO}-C[Azetidine3carboxylic][ξP]TQF[ξC]E(NH(CH2)5NHDOTA)-OH; linker 1-7 via mXylylene)
CCCCCC(=O)N[C@H]1CSCc2cccc(c2)CSCC(C(=O)N[C@@H](CCC(=O)NCCCCCNC(=O)CN2CCN(CC(=O)O)CCN(CC(=O)O)CCN(CC(=O)O)CC2)C(=O)O)NC(=O)[C@H](Cc2ccccc2)NC(=O)[C@H](CCC(N)=O)NC(=O)[C@H]([C@@H](C)O)NC(=O)C2CCCN2C(=O)C2CN(C2)C1=O (stereo partly drawn) [JHDC29, Hex[Cys(3MeBn)-hhy39-Pro-Thr-Gln-Phe-Cys]-Glu-(PDA-DOTA)-OH] (Hexanoyl-C[Azetidine3carboxylic][ξP]TQF[ξC]E(NH(CH2)5NHDOTA)-OH; linker 1-7 via mXylylene)
CCCCCC(=O)N[C@H]1CSSCC(C(=O)N[C@@H](CCC(=O)NCCOCCNC(=O)CN2CCN(CC(=O)O)CCN(CC(=O)O)CCN(CC(=O)O)CC2)C(=O)O)NC(=O)[C@H](Cc2ccccc2)NC(=O)[C@H](CCC(N)=O)NC(=O)[C@H]([C@@H](C)O)NC(=O)C2CCCN2C(=O)C2CN(C2)C1=O (stereo partly drawn) [JHDC30, Hex[Cys(SS)-hhy39-Pro-Thr-Gln-Phe-Cys]-Glu-(DAPEG2-DOTA)-OH] (Hexanoyl-C[Azetidine3carboxylic][ξP]TQF[ξC]E(NH(CH2)2O(CH2)2NHDOTA)-OH; disulfide 1-7)
CCCCNC(=O)N[C@H]1CSSCC(C(=O)N[C@@H](CCC(=O)NCCOCCNC(=O)CN2CCN(CC(=O)O)CCN(CC(=O)O)CCN(CC(=O)O)CC2)C(=O)O)NC(=O)[C@H](Cc2ccccc2)NC(=O)[C@H](CCC(N)=O)NC(=O)[C@H]([C@@H](C)O)NC(=O)C2CCCN2C(=O)C2CN(C2)C1=O (stereo partly drawn) [JHDC31, nBu-urea-[Cys(SS)-hhy39-Pro-Thr-Gln-Phe-Cys]-Glu-(DAPEG2-DOTA)-OH] ({NHBu-CO}-C[Azetidine3carboxylic][ξP]TQF[ξC]E(NH(CH2)2O(CH2)2NHDOTA)-OH; disulfide 1-7)
CCCCCC(=O)N[C@H]1CSCc2cncc(c2)CSCC(C(=O)N[C@@H](CCC(=O)NCCOCCNC(=O)CN2CCN(CC(=O)O)CCN(CC(=O)O)CCN(CC(=O)O)CC2)C(=O)O)NC(=O)[C@H](Cc2ccccc2)NC(=O)[C@H](CCC(N)=O)NC(=O)[C@H]([C@@H](C)O)NC(=O)C2CCCN2C(=O)C2CN(C2)C1=O (stereo partly drawn) [JHDC32, Hex[Cys(3MePy)-hhy39-Pro-Thr-Gln-Phe-Cys]-Glu-(DAPEG2-DOTA)-OH] (Hexanoyl-C[Azetidine3carboxylic][ξP]TQF[ξC]E(NH(CH2)2O(CH2)2NHDOTA)-OH; linker 1-7 via Pyridine(3,5-bisCH2))
CCCCNC(=O)N[C@H]1CSCc2cncc(c2)CSCC(C(=O)N[C@@H](CCC(=O)NCCOCCNC(=O)CN2CCN(CC(=O)O)CCN(CC(=O)O)CCN(CC(=O)O)CC2)C(=O)O)NC(=O)[C@H](Cc2ccccc2)NC(=O)[C@H](CCC(N)=O)NC(=O)[C@H]([C@@H](C)O)NC(=O)C2CCCN2C(=O)C2CN(C2)C1=O (stereo partly drawn) [JHDC33, nBu-urea-[Cys(3MePy)-hhy39-Pro-Thr-Gln-Phe-Cys]-Glu-(DAPEG2-DOTA)-OH] ({NHBu-CO}-C[Azetidine3carboxylic][ξP]TQF[ξC]E(NH(CH2)2O(CH2)2NHDOTA)-OH; linker 1-7 via Pyridine(3,5-bisCH2))
CCCCNC(=O)N[C@H]1CSCc2cccc(c2)CSCC(C(=O)N[C@H](CC(=O)O)CC(=O)NCCOCCNC(=O)CN2CCN(CC(=O)O)CCN(CC(=O)O)CCN(CC(=O)O)CC2)NC(=O)[C@H](Cc2ccccc2)NC(=O)[C@H](CCC(N)=O)NC(=O)[C@H]([C@@H](C)O)NC(=O)C2CCCN2C(=O)C2CN(C2)C1=O (stereo partly drawn) [JHDC34, nBu-urea-[Cys(3MeBn)-hhy39-Pro-Thr-Gln-Phe-Cys]-p-Glu-(DAPEG2-DOTA)-OH] ({NHBu-CO}-C[Azetidine3carboxylic][ξP]TQF[ξC][d(β3hD)]-{NH(CH2)2O(CH2)2NHDOTA}; linker 1-7 via mXylylene)
CCCCNC(=O)N[C@H]1CSCc2cccc(c2)CSCC(C(=O)N[C@H](CC(=O)O)CC(=O)NCCNC(=O)CN2CCN(CC(=O)O)CCN(CC(=O)O)CCN(CC(=O)O)CC2)NC(=O)[C@H](Cc2ccccc2)NC(=O)[C@H](CCC(N)=O)NC(=O)[C@H]([C@@H](C)O)NC(=O)C2CCCN2C(=O)C2CN(C2)C1=O (stereo partly drawn) [JHDC35, nBu-urea-[Cys(3MeBn)-hhy39-Pro-Thr-Gln-Phe-Cys]-p-Glu-(EDA-DOTA)-OH] ({NHBu-CO}-C[Azetidine3carboxylic][ξP]TQF[ξC][d(β3hD)]-{Ethylenediamine-DOTA}; linker 1-7 via mXylylene)
CCCCCC(=O)N[C@H]1CSCc2cccc(c2)CSCC(C(=O)N[C@H](CC(=O)O)CC(=O)NCCOCCNC(=O)CN2CCN(CC(=O)O)CCN(CC(=O)O)CCN(CC(=O)O)CC2)NC(=O)[C@H](Cc2ccccc2)NC(=O)[C@H](CCC(N)=O)NC(=O)[C@H]([C@@H](C)O)NC(=O)C2CCCN2C(=O)C2CN(C2)C1=O (stereo partly drawn) [JHDC36, Hex-[Cys(3MeBn)-hhy39-Pro-Thr-Gln-Phe-Cys]-β-Glu-(DAPEG2-DOTA)-OH] (Hexanoyl-C[Azetidine3carboxylic][ξP]TQF[ξC][d(β3hD)]-{NH(CH2)2O(CH2)2NHDOTA}; linker 1-7 via mXylylene)
CCCCCC(=O)N[C@H]1CSCc2cccc(c2)CSCC(C(=O)N[C@@H](CNC(=O)CCCCNC(=O)CN2CCN(CC(=O)O)CCN(CC(=O)O)CCN(CC(=O)O)CC2)C(=O)O)NC(=O)[C@H](Cc2ccccc2)NC(=O)[C@H](CCC(N)=O)NC(=O)[C@H]([C@@H](C)O)NC(=O)C2CCCN2C(=O)C2CN(C2)C1=O (stereo partly drawn) [JHDC40, Hex-[Cys(3MeBn)-hhy39-Pro-Thr-Gln-Phe-Cys]-DAPA-(APTA-DOTA)-OH] (Hexanoyl-C[Azetidine3carboxylic][ξP]TQF[ξC][Dap]([Ava-DOTA])-OH; linker 1-7 via mXylylene)
CCCCNC(=O)N[C@H]1CSCc2cccc(c2)CSCC(C(=O)N[C@@H](CNC(=O)CCCCNC(=O)CN2CCN(CC(=O)O)CCN(CC(=O)O)CCN(CC(=O)O)CC2)C(=O)O)NC(=O)[C@H](Cc2ccccc2)NC(=O)[C@H](CCC(N)=O)NC(=O)[C@H]([C@@H](C)O)NC(=O)C2CCCN2C(=O)C2CN(C2)C1=O (stereo partly drawn) [JHDC41, nBu-urea-[Cys(3MeBn)-hhy39-Pro-Thr-Gln-Phe-Cys]-DAPA-(APTA-DOTA)-OH] ({NHBu-CO}-C[Azetidine3carboxylic][ξP]TQF[ξC][Dap]([Ava-DOTA])-OH; linker 1-7 via mXylylene)
